In data set [1] the target is T1, Solute carrier family 22 member 4 (Homo sapiens, UniProt Q9H015).
T1 sequence (Q9H015 whole entry): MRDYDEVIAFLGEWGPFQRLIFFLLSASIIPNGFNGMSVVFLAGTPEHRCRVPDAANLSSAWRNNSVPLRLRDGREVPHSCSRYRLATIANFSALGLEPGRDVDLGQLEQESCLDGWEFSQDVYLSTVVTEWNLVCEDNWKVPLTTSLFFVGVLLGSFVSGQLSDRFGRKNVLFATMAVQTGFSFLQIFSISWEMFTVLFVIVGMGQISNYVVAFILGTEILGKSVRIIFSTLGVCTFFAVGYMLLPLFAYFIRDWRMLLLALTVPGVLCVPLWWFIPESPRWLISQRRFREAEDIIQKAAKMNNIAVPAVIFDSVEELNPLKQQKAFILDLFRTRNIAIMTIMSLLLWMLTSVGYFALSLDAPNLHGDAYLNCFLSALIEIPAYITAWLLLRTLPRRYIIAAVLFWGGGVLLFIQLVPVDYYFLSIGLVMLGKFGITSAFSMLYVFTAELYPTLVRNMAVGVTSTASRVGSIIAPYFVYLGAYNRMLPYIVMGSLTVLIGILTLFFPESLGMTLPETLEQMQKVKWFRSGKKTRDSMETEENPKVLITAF
As to the kind of experiment: TP_TRANSPORTER: inhibition of TEA uptake (TEA: 60 uM, Lysine: 5000 uM) in Xenopus laevis oocytes. It counts as functional, cell-based. The note with it: oocyte.

Data set [2] addresses T1, Solute carrier family 22 member 4. As to the kind of experiment: TP_TRANSPORTER: inhibition of TEA uptake (TEA: 60 uM, Pyrilamine: 1000 uM) in Xenopus laevis oocytes. In kind it is functional, cell-based, Oocyte. The following applies: probe TEA, read-out: Activity. Also noted: scale not given: the % may be the effect or the level left.
For data set [3] the target is unchanged. Nature of the data set: TP_TRANSPORTER: uptake in Xenopus laevis oocytes. It counts as functional, cell-based. The following applies: oocyte.
For data set [4] the target is unchanged. Nature of the data set: TP_TRANSPORTER: inhibition of TEA uptake (TEA: 60 uM, L-Carnitine: 1000 uM) in Xenopus laevis oocytes. In kind it is functional, cell-based, Oocyte. Also on record: scale not given: the % may be the effect or the level left. The following applies: probe TEA, read-out: Activity.
Data set [5] shares this target. Nature of the data set: TP_TRANSPORTER: inhibition of TEA uptake (TEA: 60 uM, Quinine: 1000 uM) in Xenopus laevis oocytes. In kind it is functional, cell-based. Also on record: scale not given: the % may be the effect or the level left. The following applies: oocyte.
Data set [6] has the same target. Nature of the data set: TP_TRANSPORTER: inhibition of TEA uptake (TEA: 60 uM, Levofloxacin: 1000 uM) in Xenopus laevis oocytes. It counts as functional, cell-based. Also noted: scale not given: the % may be the effect or the level left. The note with it: oocyte.
The target is the same in data set [7]. Nature of the data set: TP_TRANSPORTER: inhibition of TEA uptake (TEA: 60 uM, Arginine: 5000 uM) in OCTN1-expressing HEK293 cells. In kind it is functional, cell-based. The following applies: hek293, 5000 µM.
The target is the same in data set [8]. As to the kind of experiment: TP_TRANSPORTER: inhibition of TEA uptake (TEA: 60 uM, Procainamide: 1000 uM) in Xenopus laevis oocytes. The following applies: probe TEA, read-out: Activity. In kind it is functional, cell-based, Oocyte. Also on record: scale not given: the % may be the effect or the level left.
Data set [9] shares this target. Nature of the data set: TP_TRANSPORTER: inhibition of TEA uptake (TEA: 60 uM, NMN: 5000 uM) in Xenopus laevis oocytes. It counts as functional, cell-based. The note with it: oocyte.
Data set [10] has the same target. As to the kind of experiment: in vitro. The note with it: xenopus laevis, Xenopus laevis oocytes, probe TEA.
Data set [11] shares this target. As to the kind of experiment: TP_TRANSPORTER: inhibition of TEA uptake (TEA: 60 uM, OFLX: 1000 uM) in Xenopus laevis oocytes. Also on record: scale not given: the % may be the effect or the level left. The following applies: probe TEA, read-out: Activity. In kind it is functional, cell-based, Oocyte.
Data set [12] has the same target. As to the kind of experiment: TP_TRANSPORTER: inhibition of TEA uptake (TEA: 60 uM, PAH: 5000 uM) in Xenopus laevis oocytes. It counts as functional, cell-based. The following applies: oocyte.
Data set [13] shares this target. As to the kind of experiment: TP_TRANSPORTER: inhibition of TEA uptake (TEA: 60 uM, Quinidine: 1000 uM) in Xenopus laevis oocytes. It counts as functional, cell-based, Oocyte. Also on record: scale not given: the % may be the effect or the level left. The following applies: probe TEA, read-out: Activity.
The target is the same in data set [14]. As to the kind of experiment: TP_TRANSPORTER: inhibition of TEA uptake (TEA: 60 uM, Spermidine: 5000 uM) in Xenopus laevis oocytes. It counts as functional, cell-based. The following applies: oocyte.
Data set [15] has the same target. As to the kind of experiment: TP_TRANSPORTER: inhibition of TEA uptake (TEA: 60 uM, Guanidine: 5000 uM) in Xenopus laevis oocytes. It counts as functional, cell-based, Oocyte. Also noted: scale not given: the % may be the effect or the level left. The following applies: probe TEA, read-out: Activity.
Data set [16] shares this target. As to the kind of experiment: TP_TRANSPORTER: inhibition of TEA uptake (TEA: 60 uM, D-Carnitine: 1000 uM) in Xenopus laevis oocytes. It counts as functional, cell-based, Oocyte. Also noted: scale not given: the % may be the effect or the level left. The note with it: probe TEA, read-out: Activity.
Data set [17] shares this target. As to the kind of experiment: in vitro. The note with it: xenopus laevis, Xenopus laevis oocytes, probe TEA. The source holds these as a separate data set.
For data set [18] the target is unchanged. As to the kind of experiment: in vitro. The following applies: xenopus laevis, Xenopus laevis oocytes, probe TEA. The source holds these as a separate data set.
Data set [19] has the same target. Nature of the data set: TP_TRANSPORTER: inhibition of TEA uptake (TEA: 60 uM, Verapamil: 1000 uM) in Xenopus laevis oocytes. In kind it is functional, cell-based, Oocyte. Also noted: scale not given: the % may be the effect or the level left. The note with it: probe TEA, read-out: Activity.
Data set [20] has the same target. Nature of the data set: TP_TRANSPORTER: inhibition of TEA uptake (TEA: 60 uM, CER: 1000 uM) in Xenopus laevis oocytes. It counts as functional, cell-based, Oocyte. Also on record: scale not given: the % may be the effect or the level left. The following applies: probe TEA, read-out: Activity.
For data set [21] the target is unchanged. As to the kind of experiment: TP_TRANSPORTER: inhibition of TEA uptake (TEA: 60 uM, PCG: 5000 uM) in Xenopus laevis oocytes. It counts as functional, cell-based. The following applies: oocyte.
Substrate in data set [22]: CC[N+](CC)(CC)CC
Nature of the data set: cells, lysate or membranes named.

In ChEMBL document CHEMBL2073767, “Novel membrane transporter OCTN1 mediates multispecific, bidirectional, and pH-dependent transport of organic cations” (J Pharmacol Exp Ther, 1999) one finds Activity, activity and Km data, which are given here for 21 molecules.

Broadly, the Km is the concentration of substrate that gives half-maximal velocity.

On to `NCCCC[C@H](N)C(=O)O` [LYSINE], for which the Activity result in data set [1] was “is not an inhibitor [-]”.
For `COc1ccc(CN(CCN(C)C)c2ccccn2)cc1` [PYRILAMINE], in [2], the activity at 1000 µM is 0%. The Activity result in data set [3] is “substrate [+]”.
As to `C[N+](C)(C)CC(O)CC(=O)[O-]` (stereo unspecified) [CARNITINE], the activity at 1000 µM in data set [4] stood at 32.5%. Further, the Activity entry in data set [3] is “substrate [+]”.
Molecule `C=C[C@H]1C[N@@]2CC[C@H]1C[C@H]2[C@H](O)c1ccnc2ccc(OC)cc12` [QUININE] registered an Activity in data set [5] of 24.6%.
Take `C[C@H]1COc2c(N3CCN(C)CC3)c(F)cc3c(=O)c(C(=O)O)cn1c23.C[C@H]1COc2c(N3CCN(C)CC3)c(F)cc3c(=O)c(C(=O)O)cn1c23.O` [LEVOFLOXACIN]: in [6], the Activity stood at 63.6%.
Take `N=C(N)NCCC[C@H](N)C(=O)O` [ARGININE]: the Activity entry in data set [7] is “is not an inhibitor [-]”.
For the molecule `CCN(CC)CCNC(=O)c1ccc(N)cc1` [PROCAINAMIDE], the activity at 1000 µM in [8] worked out at 15.6%.
For the molecule `CNC(=O)c1cccnc1` [NICOTINYL METHYLAMIDE], the Activity result in data set [9] is “is not an inhibitor [-]”.
Turning to `Clc1cccc(Cl)c1N=C1NCCN1` [CLONIDINE], the activity at 1000 µM in data set [10] stood at 70.9%.
Take `CC1COc2c(N3CCN(C)CC3)c(F)cc3c(=O)c(C(=O)O)cn1c23` (stereo unspecified) [OFLOXACIN]: in data set [11], the activity at 1000 µM worked out at 61.4%.
On to `Nc1ccc(C(=O)NCC(=O)O)cc1` [AMINOHIPPURIC ACID], for which, in data set [12], the Activity result is “is not an inhibitor [-]”.
Take `C=C[C@H]1C[N@@]2CC[C@H]1C[C@@H]2[C@@H](O)c1ccnc2ccc(OC)cc12` [QUINIDINE]: the activity at 1000 µM in data set [13] came to 15.2%. Further, the Activity entry in [3] was “substrate [+]”.
Take `NCCCCNCCCN` [SPERMIDINE]: the Activity result in data set [14] is “is not an inhibitor [-]”.
Take `N=C(N)N` [GUANIDINE]: the activity at 5000 µM in [15] was found to be 89.6%.
For `C[N+](C)(C)C[C@@H](O)CC(=O)[O-]` [D-CARNITINE], the activity at 1000 µM in [16] turned out to be 53.9%.
Molecule `CN1CCC[C@H]1c1cccnc1` [NICOTINE] registered an activity at 1000 µM in data set [17] of 71.6%.
`C[N+](C)(C)CCO` [CHOLINE] yielded an activity at 5000 µM in [18] of 73.2%.
As for `COc1ccc(CCN(C)CCCC(C#N)(c2ccc(OC)c(OC)c2)C(C)C)cc1OC` (stereo unspecified), the activity at 1000 µM in [19] came out at 8.8%. Further, in [3], the Activity result was “substrate [+]”.
As for `O=C(Cc1cccs1)N[C@@H]1C(=O)N2C(C(=O)[O-])=C(C[n+]3ccccc3)CS[C@H]12` [CEPHALORIDINE], the activity at 1000 µM in data set [20] turned out to be 35.7%.
On to `CC1(C)S[C@@H]2[C@H](NC(=O)Cc3ccccc3)C(=O)N2[C@H]1C(=O)O` [PENICILLIN G], for which the values for the Activity entry in data set [21] and in data set [3] were “is not an inhibitor [-]” and “is not a substrate [-]”, respectively.

B1: Solute carrier family 22 member 4 (Homo sapiens) (protein)
chain: MRDYDEVIAFLGEWGPFQRLIFFLLSASIIPNGFNGMSVVFLAGTPEHRCRVPDAANLSSAWRNNSVPLRLRDGREVPHSCSRYRLATIANFSALGLEPGRDVDLGQLEQESCLDGWEFSQDVYLSTVVTEWNLVCEDNWKVPLTTSLFFVGVLLGSFVSGQLSDRFGRKNVLFATMAVQTGFSFLQIFSISWEMFTVLFVIVGMGQISNYVVAFILGTEILGKSVRIIFSTLGVCTFFAVGYMLLPLFAYFIRDWRMLLLALTVPGVLCVPLWWFIPESPRWLISQRRFREAEDIIQKAAKMNNIAVPAVIFDSVEELNPLKQQKAFILDLFRTRNIAIMTIMSLLLWMLTSVGYFALSLDAPNLHGDAYLNCFLSALIEIPAYITAWLLLRTLPRRYIIAAVLFWGGGVLLFIQLVPVDYYFLSIGLVMLGKFGITSAFSMLYVFTAELYPTLVRNMAVGVTSTASRVGSIIAPYFVYLGAYNRMLPYIVMGSLTVLIGILTLFFPESLGMTLPETLEQMQKVKWFRSGKKTRDSMETEENPKVLITAF
Regarding B1, in data set [22], the Km came out at 436 µM.
